Several values for one entry are separate records, joined by “and”; a condition that tells them apart may be missing. Identical values can stand only once.
Experiments:
[1] = LC-HRMS analysis, enzymatic assay buffer + probe without enzyme; settings: 1 h
Protocol: These analyses were carried out by using UPLC-HRMS procedure with Vanquish UPLC system coupled to a Thermo Scientific Q-Exactive Plus, operating in negative electrospray ionization mode. The chromatographic separation was carried out using a Phenomenex Synergi 4 µ Polar-RP 80 A (150 × 2 mm) equipped with a Phenomenex Polar-RP (4 mm × 2 mm) security guard column. The mobile phase consisted of A: acetonitrile 0.1% formic acid and B: 0.1% formic acid. We used a linear elution gradient, starting from 80% of A to 5% A in 3 min, 3 min at 5% A, an equilibration of 4 min for a total run time of 10.00 min, at 300 µl/min flow rate. The autosampler temperature was set at 15 °C, the injection volume was 5 µl and column was maintained at 40 °C. […] Before injecting the samples, the blanks in the list were analyzed and every biological sample was analyzed in duplicate. The biological samples analyzed were as follow: (1) Enzymatic assay Buffer; (2) Enzymatic assay Buffer + NAD^+; (3) Enzymatic assay Buffer + Probe 10 or Probe 11; (4) Enzymatic assay Buffer + ALDH1A1; (5) Enzymatic assay Buffer + ALDH1A2; (6) Enzymatic assay Buffer + ALDH1A3; (7) Enzymatic assay Buffer + ALDH1A1 + Probe 10 or Probe 11; (8) Enzymatic assay Buffer + ALDH1A2 + Probe 10 or Probe 11; (9) Enzymatic assay Buffer + ALDH1A3 + Probe 10 or Probe 11. […]

ALDH1A1 [2] = target: T1, ALDH1A1 (Homo sapiens, UniProt P00352); assay: LC-HRMS analysis of isoenzyme activity in presence of probe; type: biochemical; settings: 1 h incubation, LC-HRMS
T1 construct: E. coli BL21 (DE3) were transformed with the full-length expression vector of each isoform; His-tag; made in house; host or cells: E. coli BL21 (DE3)
T1 sequence (P00352 1-501): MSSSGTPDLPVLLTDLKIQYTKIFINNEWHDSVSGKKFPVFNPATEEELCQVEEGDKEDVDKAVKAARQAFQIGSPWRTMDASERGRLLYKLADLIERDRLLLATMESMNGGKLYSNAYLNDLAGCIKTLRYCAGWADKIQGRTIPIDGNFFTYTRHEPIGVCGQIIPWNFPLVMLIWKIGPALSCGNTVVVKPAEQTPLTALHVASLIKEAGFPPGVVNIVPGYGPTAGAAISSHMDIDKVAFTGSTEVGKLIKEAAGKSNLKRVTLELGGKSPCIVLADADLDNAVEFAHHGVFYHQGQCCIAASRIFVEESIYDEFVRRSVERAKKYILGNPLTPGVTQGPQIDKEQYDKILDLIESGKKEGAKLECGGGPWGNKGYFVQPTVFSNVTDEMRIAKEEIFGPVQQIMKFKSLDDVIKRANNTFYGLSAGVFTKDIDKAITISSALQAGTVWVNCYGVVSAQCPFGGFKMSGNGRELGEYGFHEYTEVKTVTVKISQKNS
Protocol: These analyses were carried out by using UPLC-HRMS procedure with Vanquish UPLC system coupled to a Thermo Scientific Q-Exactive Plus, operating in negative electrospray ionization mode. The chromatographic separation was carried out using a Phenomenex Synergi 4 µ Polar-RP 80 A (150 × 2 mm) equipped with a Phenomenex Polar-RP (4 mm × 2 mm) security guard column. The mobile phase consisted of A: acetonitrile 0.1% formic acid and B: 0.1% formic acid. We used a linear elution gradient, starting from 80% of A to 5% A in 3 min, 3 min at 5% A, an equilibration of 4 min for a total run time of 10.00 min, at 300 µl/min flow rate. The autosampler temperature was set at 15 °C, the injection volume was 5 µl and column was maintained at 40 °C. The heated electrospray ionization source was used, with a spray voltage of […], with a capillary temperature of 300 °C, a heater temperature of 350 °C, a sheat gas flow of 45 arbitrary units (AU), an auxiliary gas flow of 10 AU and a sweep gas flow of 0 AU. During the Parallel Reaction Monitoring acquisition in negative ion mode, the instrument operated at 17,500 resolution in presence of the inclusion list (m/z = 596.20384 and m/z = 612.19875 for Probe 10 and Probe 10-COOH respectively; m/z = 534.18819 and m/z = 506.156888 for Probe 11 and Probe 11-COOH respectively) with an automatic gain control target of 2 × 10^5 charges and a maximum injection time of 100 ms. Before injecting the samples, the blanks in the list were analyzed and every biological sample was analyzed in duplicate. The biological samples analyzed were as follow: (1) Enzymatic assay Buffer; (2) Enzymatic assay Buffer + NAD^+; (3) Enzymatic assay Buffer + Probe 10 or Probe 11; (4) Enzymatic assay Buffer + ALDH1A1; (5) Enzymatic assay Buffer + ALDH1A2; (6) Enzymatic assay Buffer + ALDH1A3; (7) Enzymatic assay Buffer + ALDH1A1 + Probe 10 or Probe 11; (8) Enzymatic assay Buffer + ALDH1A2 + Probe 10 or Probe 11; (9) Enzymatic assay Buffer + ALDH1A3 + Probe 10 or Probe 11. All samples were diluted 1:1 with ACN, then 1:100 in ACN-Water 1:1 prior the LC-HRMS analysis.

ALDH1A1 [3] = target: T1, ALDH1A1; assay: Enzymatic inhibition assay with acetaldehyde; type: biochemical; settings: up to highest probe concentration
Protocol: (§1) Initially, the inhibitory activities of our fluorescent probes were screened at a fixed concentration of 50 μM using a Tecan Sunrise 96 Multiplate Reader with Greiner Bio-One 96-UV-Transparent Microplates. The analysis was performed in triplicate in a total volume of 100 μl per well containing 20 mM Tris HCl pH 8.0, 1 mM β-mercaptoethanol, 150 mM KCl, 500 μM NAD^+, […], 2.8 μM hALDH1A and 20 mM acetaldehyde. Afterwards, the inhibitory potency of the fluorescent probes was further investigated, evaluating the IC50 parameter. The enzymatic inhibition assays were performed in triplicate in a total volume of 100 μl per well containing 20 mM Tris HCl pH 8.0, 1 mM β-mercaptoethanol, 150 mM KCl, 500 μM NAD^+, 2.8 μM hALDH1A and 20 mM acetaldehyde in the presence of different probe concentrations, from 200 μM to 1.5625 μM. The DMSO final concentration allowed was up to 15%. Only for ALDH1A3 in complex with Probe 10, the Ki affinity parameter was calculated by performing the analysis in triplicate in a total volume of 100 μl per well containing 20 mM Tris HCl pH 8.0, 1 mM β-mercaptoethanol, 150 mM KCl, 500 μM NAD^+ and 2.8 μM ALDH1As. Due to chemical nature of Probe 10 and Probe 11, we set up the enzymatic assay assuming a competitive inhibition using different compounds concentration, from 200 μM to 1 μM, and different acetaldehyde concentrations, from 20 mM to 2.5 mM. Each reaction mix was preincubated for 10 min at 25 °C before the analysis. The catalytic activity was measured by monitoring the absorbance at 340 nm (εNADH = 6220 M^−^1 cm^−1) for 30 min at 25 °C and the inhibitory parameters were calculated by processing the raw data on SigmaPlot[53].

ALDH1A2 = target: T2, ALDH1A2 (Homo sapiens, UniProt O94788); assay: Enzymatic inhibition assay with acetaldehyde; type: biochemical; settings: up to highest probe concentration
T2 construct: E. coli BL21 (DE3) were transformed with the full-length expression vector of each isoform; His-tag; made in house; host or cells: E. coli BL21 (DE3)
T2 sequence (O94788 1-518): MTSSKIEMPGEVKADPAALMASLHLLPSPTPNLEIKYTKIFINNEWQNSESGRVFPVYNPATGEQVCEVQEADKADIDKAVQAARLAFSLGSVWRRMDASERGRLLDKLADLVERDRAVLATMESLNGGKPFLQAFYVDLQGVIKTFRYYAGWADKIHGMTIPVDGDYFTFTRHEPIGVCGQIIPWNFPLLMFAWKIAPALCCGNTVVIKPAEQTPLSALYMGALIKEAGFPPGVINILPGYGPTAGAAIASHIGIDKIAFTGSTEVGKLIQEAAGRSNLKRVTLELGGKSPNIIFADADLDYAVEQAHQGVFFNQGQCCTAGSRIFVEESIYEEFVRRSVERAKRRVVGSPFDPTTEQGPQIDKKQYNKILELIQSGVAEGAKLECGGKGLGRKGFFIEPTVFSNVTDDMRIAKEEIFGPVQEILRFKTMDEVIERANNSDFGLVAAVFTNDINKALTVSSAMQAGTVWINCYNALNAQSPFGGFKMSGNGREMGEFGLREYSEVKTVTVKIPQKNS
Protocol: as §1

COc1cc(/C=C/C(O)=C/C(=O)/C=C/c2ccc(OCc3cn(CCOc4ccc(C=O)cc4)nn3)c(OC)c2)ccc1O [Probe 10]
AREA TIC of Probe 10 [1]: 9480149 and 10113371 and 16727419 and 14473716
oxidation of probe to carboxylic derivative / substrate behaviour (ALDH1A1 [2]): fully metabolized
inhibition of ALDH1A1 (ALDH1A1 [3]): Neither of the two other isozymes were inhibited
inhibition of ALDH1A2 (ALDH1A2): Neither of the two other isozymes were inhibited

CCOC(=O)Cn1cc(COc2ccc(/C=C/C(=O)/C=C(O)/C=C/c3ccc(O)c(OC)c3)cc2OC)nn1 [Probe 11]
oxidation of probe to carboxylic derivative / substrate behaviour (ALDH1A1 [2]): has not been shown to be a substrate
inhibition of ALDH1A1 (ALDH1A1 [3]): no inhibitory effect
inhibition of ALDH1A2 (ALDH1A2): no inhibitory effect
